The values below come from US20080275018A1, “ANTIBACTERIAL AMIDE-MACROCYCLES V” (AiCuris GmbH & Co. KG, priority 2005, published 2008).

Test [1] concerns the target S. aureus 133 Translation. The test is described as follows: S. aureus in vitro transcription-translation assay (firefly luciferase, S30 extract). Type of test: biochemical. The note with it: 50% inhibition of the translation of firefly luciferase. From the text:
For the construction of a reporter plasmid which can be used in an in vitro transcription-translation assay from S. aureus the plasmid pBESTluc (Promega Corporation, USA) is used. The E. coli tac promoter present in this plasmid in front of the firefly luciferase is replaced by the capA1 promoter with corresponding Shine-Dalgarno sequence from S. aureus. The primers CAPFor 5′-[…]-[…] GCCA-3′ and CAPRev 5′-[…]-3′ are used for this. The primer CAPFor contains the capA1 promoter, the ribosome binding site and the 5′ region of the luciferase gene. After PCR using pBESTluc as template it is possible to isolate a PCR product which contains the firefly luciferase gene with the fused capA1 promoter. This is, after restriction with ClaI and HindIII, ligated into the vector pBESTluc which has likewise been digested with ClaI and HindIII. The resulting plasmid pla can be replicated in E. coli and be used as template in the S. aureus in vitro transcription-translation test.
Six litres of BHI medium are inoculated with a 250 ml overnight culture of an S. aureus Strain and allowed to grow at 37° C. until the OD600 nm is 2-4. The cells are harvested by centrifugation and washed in 500 ml of cold buffer A (10 mM Tris acetate, pH 8.0, 14 mM magnesium acetate, 1 mM DTT, 1 M KCl). After renewed centrifugation, the cells are washed in 250 ml of cold buffer A with 50 mM KCl, and the resulting pellets are frozen at −20° C. for 60 min. The pellets are thawed on ice in 30 to 60 min and taken up to a total volume of 99 ml in buffer B (10 mM Tris acetate, pH 8.0, 20 mM magnesium acetate, 1 mM DTT, 50 mM KCl). 1.5 ml portions of lysostaphin (0.8 mg/ml) in buffer B are provided in 3 precooled centrifuge cups and each mixed with 33 ml of the cell suspension. The samples are incubated at 37° C., shaking occasionally, for 45 to 60 min, before 150 μl of a 0.5 M DTT solution are added. The lysed cells are centrifuged at 30 000×g and 4° C. for 30 min. The cell pellet is taken up in buffer B and then centrifuged again under the same conditions, and the collected supernatants are combined. The supernatants are centrifuged again under the same conditions, and 0.25 volumes of buffer C (670 mM Tris acetate, pH 8.0, 20 mM magnesium acetate, 7 mM Na3 phosphoenolpyruvate, 7 mM DTT, 5.5 mM ATP, 70 μM amino acids (complete from Promega), 75 μg of pyruvate kinase (Sigma, Germany)/ml are added to the upper ⅔ of the supernatant. The samples are incubated at 37° C. for 30 min. The supernatants are dialysed against 2 l of dialysis buffer (10 mM Tris acetate, pH 8.0, 14 mM magnesium acetate, 1 mM DTT, 60 mM potassium acetate) in a dialysis tube with a 3500 Da cut-off with one buffer change at 4° C. overnight. The dialysate is concentrated to a protein concentration of about 10 mg/ml by
covering the dialysis tube with cold PEG 8000 powder (Sigma, Germany) at 4° C. The S30 extracts can be stored in aliquots at −70° C.
The inhibition of protein biosynthesis of the compounds can be shown in an in vitro transcription-translation assay. The assay is based on the cell-free transcription and translation of firefly luciferase using the reporter plasmid pla as template and cell-free S30 extracts obtained from S. aureus. The activity of the resulting luciferase can be detected by luminescence measurement.
The amount of S30 extract or plasmid pla to be employed must be tested anew for each preparation in order to ensure an optimal concentration in the test. […] of the substance to be tested, dissolved in 5% DMSO, are introduced into an MTP. Then […] of a suitably concentrated plasmid solution pla are added. […]

The next test relates to E. faecium L4001. The test is described as follows: Minimum inhibitory concentration (MIC), E. faecium L4001. Type of test: cell-based, Enterococcus faecium. The note with it: E. faecium L4001; 10% FCS in test medium. The protocol:
The minimum inhibitory concentration (MIC) is the minimum concentration of an antibiotic with which the growth of a test microbe is inhibited over 18-24 h. The inhibitor concentration can in these cases be determined by standard microbiological methods (see, for example, The National Committee for Clinical Laboratory Standards. Methods for dilution antimicrobial susceptibility tests for bacteria that grow aerobically; approved standard-fifth edition. NCCLS document M7-A5 [ISBN 1-56238-394-9]. NCCLS, 940 West Valley Road, Suite 1400, Wayne, Pa. 19087-1898 USA, 2000). The MIC of the compounds of the invention is determined in the liquid dilution test on the 96-well microtiter plate scale. The bacterial microbes are cultivated in a minimal medium (18.5 mM Na2HPO4, 5.7 mM KH2PO4, 9.3 mM NH4Cl, 2.8 mM MgSO4, 17.1 mM NaCl, 0.033 μg/ml thiamine hydrochloride, 1.2 μg/ml nicotinic acid, 0.003 μg/ml biotin, 1% glucose, 25 μg/ml of each proteinogenic amino acid with the exception of phenylalanine; [H.-P. Kroll; unpublished]) with the addition of 0.4% BH broth (test medium). In the case of Enterococcus faecium L4001, heat-inactivated fetal calf serum (FCS; GibcoBRL, Germany) is added to the test medium in a final concentration of 10%. Overnight cultures of the test microbes are diluted to an OD578 of 0.001 (to 0.01 in the case of enterococci) in fresh test medium, and incubated 1:1 with dilutions of the test substances (1:2 dilution steps) in test medium ([…]). The cultures are incubated at 37° C. for 18-24 hours; enterococci in the presence of 5% CO2.
The lowest substance concentration in each case at which no visible bacterial growth occurs any longer is defined as the MIC.

SMILES strings stand for the structures.

One may read the IC50 as the midpoint of a concentration-inhibition curve. Low values mean inhibition by little substance, high ones a need for much substance. Compound `NC[C@H](O)C[C@@H]1NC(=O)[C@@H](N)Cc2cc(ccc2O)-c2ccc(O)c(c2)C[C@@H](C(=O)O)NC1=O` [Biphenomycin B, biphenomycin B, reference compound] had an IC50 in test [1] of 1.5 µM. Further, the “MIC E. faecium L4001” value in the test on E. faecium L4001 amounted to 0.5 μ/ml.
